Measurements as given in patent publication US9775902B2, “Compounds and methods for treatment of stroke” (FIBROGEN, INC, priority 2006, dated 2017).
Like-named read-outs stand apart in the source and are kept apart here.

Experiments:
erythropoietin (EPO) [1] = experiment: EPO expression in Hep3B cells (QUANTIKINE immunoassay of conditioned media); format: cell-based, Human; conditions: for Fold Increase Over Control: EPO, vs 1% DMSO control; for EPO: conditioned media after overnight incubation with compound
Summary of the method: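 Confluent Hep3B cells were switched to OPTI-MEM for about 24 h (20% O2, 5% CO2, 37 °C), then treated overnight with compound or 1% DMSO vehicle. EPO secreted into the conditioned medium was measured by QUANTIKINE immunoassay.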

erythropoietin (EPO) [2] = experiment: EPO expression in Kelly neuroblastoma cells; format: cell-based; conditions: for EPO: conditioned media after overnight incubation
Summary of the method: (§1)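 Kelly neuroblastoma cells treated overnight with compound, 1% DMSO as negative control. EPO and VEGF secreted into conditioned media measured by QUANTIKINE immunoassay.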

[3] = system: vascular endothelial growth factor (VEGF); experiment: VEGF expression in Kelly neuroblastoma cells; format: cell-based; conditions: for VEGF: conditioned media after overnight incubation
Summary of the method: as §1

erythropoietin = experiment: Plasma EPO in mice after intravenous injection; format: in vivo, Swiss Webster mice; conditions: mouse plasma, 20 mg/kg i.v., four hours after injection; for fold induction at 20 mg/kg: iv, 4 h, read-out: EPO Fold Increase; for EPO: mouse EPO ELISA kit (**)
Summary of the method: (§2)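 Male Swiss Webster mice (29-34 g) received 20 mg/kg compound or vehicle by tail-vein injection in 5% dextrose with equimolar NaOH or meglumine. Plasma was collected 4 h later, and EPO and VEGF were measured by ELISA.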

VEGF = experiment: Plasma VEGF in mice after intravenous injection; format: in vivo, Swiss Webster mice; conditions: mouse plasma, 20 mg/kg i.v., four hours after injection; for fold induction at 20 mg/kg: iv, 4 h, read-out: VEGF Fold Increase
Summary of the method: as §2

[4] = system: C57BL/6 mice, permanent occlusion of the MCA; experiment: Permanent middle cerebral artery occlusion (pMCAO) in C57BL/6 mice: infarct volume and edema; format: in vivo; conditions: for Percent Reduction in Edema / inhibition in vivo at up to 20 mg/kg: C57BL/6 mice pMCAO, 20-60 mg/kg i.v., compound given 0 hr; for inhibition in vivo at up to 20 mg/kg / inhibition in vivo at 60 mg/kg: Mus musculus, iv, read-out: Percent Reduction in Infarct Volume; for inhibition in vivo at up to 20 mg/kg: 24 h, 24 hours after MCA occlusion; for inhibition in vivo at 60 mg/kg: C57BL/6 pMCAO
Summary of the method: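 Male mice (25-35 g) under avertin anaesthesia had the distal MCA coagulated through a craniotomy; compound given as single i.v. bolus (20-60 mg/kg, 6 ml/kg in 5% dextrose with equimolar meglumine or NaOH) before or up to 8 h after occlusion.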

With `N#Cc1nc(C(=O)NCC(=O)O)c(O)c2c(Oc3ccc(F)cc3)cccc12` [Compound AS, {[1-Cyano-5-(4-fluoro-phenoxy)-4-hydroxy-isoquinoline-3-carbonyl]-amino}-acetic acid] the “Fold Increase Over Control” value (erythropoietin (EPO) [1]) was 10.7, the EPO (erythropoietin (EPO) [1]) was 40.5 mIU/ml and the “EPO Fold Increase” value (erythropoietin (EPO) [2]) was 11.72. The EPO (erythropoietin (EPO) [2]) was 221.5 mIU/ml, the “VEGF Fold Increase” value [3] was 5.6 and the VEGF [3] was 8197 pg/mL. The fold induction at 20 mg/kg (erythropoietin) was 102, the EPO (erythropoietin) was 49305 pg/mL and the fold induction at 20 mg/kg (VEGF) was 0.57. The VEGF (VEGF) was 20 pg/mL, the “Percent Reduction in Edema” value [4] was 54% and the inhibition in vivo at up to 20 mg/kg [4] was 50%.
For `Cc1cccc(C)c1Oc1ccc2c(C#N)nc(C(=O)NCC(=O)O)c(O)c2c1` [Compound AL, {[1-Cyano-6-(2,6-dimethyl-phenoxy)-4-hydroxy-isoquinoline-3-carbonyl]-amino}-acetic acid], the “Fold Increase Over Control” value (erythropoietin (EPO) [1]) was 13.9, the EPO (erythropoietin (EPO) [1]) was 74.8 mIU/ml and the “EPO Fold Increase” value (erythropoietin (EPO) [2]) was 11.31. The EPO (erythropoietin (EPO) [2]) was 213.8 mIU/ml, the “VEGF Fold Increase” value [3] was 3.8 and the VEGF [3] was 5499 pg/mL. The fold induction at 20 mg/kg (erythropoietin) was 188, the EPO (erythropoietin) was 22514 pg/mL and the fold induction at 20 mg/kg (VEGF) was 2.06. For the same compound, the VEGF (VEGF) was 130 pg/mL, the “Percent Reduction in Edema” value [4] was 73% and the inhibition in vivo at up to 20 mg/kg [4] was 43%.
In the case of `COc1ccc(Oc2ccc3c(O)c(C(=O)NCC(=O)O)ncc3c2)cc1` [Compound F, {[4-Hydroxy-7-(4-methoxy-phenoxy)-isoquinoline-3-carbonyl]-amino}-acetic acid], the “Fold Increase Over Control” value (erythropoietin (EPO) [1]) was 3.0, the EPO (erythropoietin (EPO) [1]) was 369.4 mIU/ml and the “EPO Fold Increase” value (erythropoietin (EPO) [2]) was 10.5. For the same compound, the EPO (erythropoietin (EPO) [2]) was 65 mIU/ml, the “VEGF Fold Increase” value [3] was 16.2 and the VEGF [3] was 2564.9 pg/mL. The fold induction at 20 mg/kg (erythropoietin) was 254, the EPO (erythropoietin) was 2283 pg/mL and the fold induction at 20 mg/kg (VEGF) was 2.21. The VEGF (VEGF) was 64 pg/mL, the “Percent Reduction in Edema” value [4] was 47% and the inhibition in vivo at 60 mg/kg ([4]; 0 h, 60 mg/kg single i.v. bolus (Meglumine vehicle), 0 hr after MCA occlusion) was 43%. It also gave an inhibition in vivo at 60 mg/kg ([4]; 0 h, 60 mg/kg single i.v. bolus (NaOH vehicle), 0 hr after MCA occlusion) of 50%, an inhibition in vivo at 60 mg/kg ([4]; 1 h, 60 mg/kg single i.v. bolus (NaOH vehicle), 1 hr after MCA occlusion) of 62% and an inhibition in vivo at 60 mg/kg ([4]; 3 h, 60 mg/kg single i.v. bolus (NaOH vehicle), 3 hr after MCA occlusion) of 53%. For the same compound, the inhibition in vivo at 60 mg/kg ([4]; 4 h, 60 mg/kg single i.v. bolus (Meglumine vehicle), 4 hr after MCA occlusion) was 36%, the inhibition in vivo at 60 mg/kg ([4]; 5 h, 60 mg/kg single i.v. bolus (NaOH vehicle), 5 hr after MCA occlusion) was 55% and the inhibition in vivo at 60 mg/kg ([4]; 6 h, 60 mg/kg single i.v. bolus (Meglumine vehicle), 6 hr after MCA occlusion) was 15%. The inhibition in vivo at 60 mg/kg ([4]; 8 h, 60 mg/kg single i.v. bolus (Meglumine vehicle), 8 hr after MCA occlusion) was 8% and the inhibition in vivo at up to 20 mg/kg [4] was 68%.
